Assays:
[1] = tested on: hTSCs; experiment: Transwell invasion and migration assay, hTSCs; assay type: cell-based, human; conditions: dose- and time-dependent; 4×10^3 cells/ml; n=3
[2] = tested on: prCTBs; experiment: Transwell invasion and migration assay, prCTBs; assay type: cell-based, human; conditions: dose- and time-dependent; 4×10^3 cells/ml; n=3
Procedure: […] To do this, add extracellular matrix (ECM) materials on top of the transwell membrane and then add cells on top of the ECM. For example, […]® is thawed and liquefied on ice, and then 30-50 μl of […]® is added to a 24-well transwell insert and solidified in a 37 C incubator for 15-30 minutes to form a thin gel layer. Cell solution is added on top of the […]® coating to simulate invasion through the extracellular matrix. The transwell cell migration assay measures the chemotactic capability of cells toward a chemo-attractant. The transwell cell invasion assay, however, measures both cell chemotaxis and the invasion of cells through extracellular matrix, a process that is commonly found in cancer metastasis or embryonic development. Using a pipette, very carefully add 600 μl of the desired chemo-attractant into the bottom of the lower chamber in a 24-well plate. Add the chemo-attractant without moving the transwell insert and avoid generating bubbles. Make sure the chemo-attractant liquid in the bottom well makes contact with the membrane in the upper well to form a chemotactic gradient. Incubation time is dependent on cell type and the chemo-attractant being used. Note: Further tests may be needed to determine the incubation period. […] The number of migrated cells can be counted by using hemocytometer or flow cytometer. […]

[3] = tested on: CD4; experiment: IL-8 generated CD4(+) prCTBs, Western blot assay; assay type: cell-based, human; conditions: IL-8 30 ng/ml
Procedure: (§1) After electrophoresis of 30 μg lysates on polyacrylamide gels, electroblotting onto PDVF membranes (MILLIPORE®) was performed. By blocking of 5% non-fat dry milk in PBS at room temperature (I hr), target proteins were incubated with primary antibodies. All membranes were incubated with chemiluminescent (MILLIPORE®) and imaging was captured by the CHEMIDOC® XRS system (BIO-RAD®). Antibodies used were listed in Key Resource Table. Data were analyzed by AlphaEaseFC (version 4.0.0).

[4] = tested on: CD56; experiment: IL-8 induced CD56 via CXCR2/STAT3 signaling, Western blot assay; assay type: cell-based, human; conditions: IL-8 30 ng/ml
Procedure: as §1

[5] = tested on: hTSCs; experiment: RT-qPCR analysis of IL-6 / IL-8 treated hTSCs; assay type: cell-based, human; conditions: n=4; for CREB1 mRNA: IL-6 10 ng/ml or IL-8 30 ng/ml
Procedure: RNA was isolated from hTS cells in triplicate or quintuple samples using TRIZOL® reagent (INVITROGEN®) with DNAase I on-column digestion (Qiagen) according to manufacturer's protocol. Total RNA (500 ng) was used for reverse transcription with […] cDNA synthesis kit (BIO-RAD®). PCR carried out in duplicate using 1/40th of the cDNA per reaction and 400 nM forward and reverse primers. For miRNA stem-loop qPCR, we used single tube TAQMAN® miRNA assays as manufacturer's instruction (Applied Biosystems). All RT reactions, including no-template controls and RT minus controls, were carried out in a GENEAMP® PCR 9700 Thermocycler (Applied Biosystems). Comparative real-time PCR was performed in triplicate or quintuple, including no-template controls, using specific primers for miR-124 or RNU6B (Applied Biosystems). U6 snRNA (RNU6B; Applied Biosystems) served as an endogenous control. Relative expression was calculated using SDS2.2.2 software (Applied Biosystems) was used for comparative ΔCt analysis.

[6] = tested on: Foxp3; experiment: IL-8 induced Foxp3 via CXCR2/STAT3 signaling, Western blot; assay type: cell-based, human; conditions: IL-8 30 ng/ml; for IL-8-induced Foxp3 in presence of inhibitor: n=3 cell lines
Procedure: as §1

[7] = target: T1, FGFR1 (Homo sapiens, UniProt P11362); experiment: bFGF activation of FGFR1 and downstream PI3K signal, Western blot assay; assay type: cell-based; conditions: bFGF 10 ng/ml
T1 construct: endogenous in cells; host or cells: human trophoblast stem (hTS) cells
T1 sequence (P11362 22-822): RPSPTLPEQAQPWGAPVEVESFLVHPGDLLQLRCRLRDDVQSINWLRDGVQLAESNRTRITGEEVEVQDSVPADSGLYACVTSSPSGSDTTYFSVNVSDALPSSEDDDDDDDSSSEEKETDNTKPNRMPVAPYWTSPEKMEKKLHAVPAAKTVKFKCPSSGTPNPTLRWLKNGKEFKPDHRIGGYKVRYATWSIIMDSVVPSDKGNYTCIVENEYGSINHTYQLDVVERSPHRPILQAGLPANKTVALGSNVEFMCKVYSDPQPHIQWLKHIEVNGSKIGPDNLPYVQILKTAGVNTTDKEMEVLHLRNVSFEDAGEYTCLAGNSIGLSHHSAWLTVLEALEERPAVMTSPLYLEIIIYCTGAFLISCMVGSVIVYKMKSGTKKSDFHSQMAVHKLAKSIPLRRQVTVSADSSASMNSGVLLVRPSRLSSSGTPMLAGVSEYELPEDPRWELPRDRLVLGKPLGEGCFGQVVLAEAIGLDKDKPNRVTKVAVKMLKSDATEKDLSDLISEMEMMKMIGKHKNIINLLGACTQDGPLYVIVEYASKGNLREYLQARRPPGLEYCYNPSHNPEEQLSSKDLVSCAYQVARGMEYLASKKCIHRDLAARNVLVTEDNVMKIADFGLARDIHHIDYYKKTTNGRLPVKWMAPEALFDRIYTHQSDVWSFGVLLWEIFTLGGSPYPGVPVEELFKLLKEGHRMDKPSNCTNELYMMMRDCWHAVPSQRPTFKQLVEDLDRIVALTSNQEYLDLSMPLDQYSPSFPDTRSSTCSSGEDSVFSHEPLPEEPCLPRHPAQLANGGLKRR
Procedure: as §1, with “In cell culture, hTS cells were treated with bFGF and harvested at time as indicated and put into RIPA lysis solution (MILLIPORE®) supplemented with protease (Thermo Scientific) and phosphatase inhibitor (Cell Signaling Technology). After” for “After”

[8] = tested on: STAT3, c-JUN, Fas ligand (FasL), Fas; experiment: STAT3, c-JUN, FasL and Fas by immunoblotting assay; assay type: cell-based, human; conditions: bFGF 10 ng/ml
Procedure: as §1, with “In cell culture, hTS cells were treated with bFGF and harvested at time as indicated and put into RIPA lysis solution (MILLIPORE®) supplemented with protease (Thermo Scientific) and phosphatase inhibitor (Cell Signaling Technology). After” for “After”

[9] = tested on: hTSCs; experiment: bFGF-induced epithelial-mesenchymal transition markers, Western blot assay; assay type: cell-based, human; conditions: bFGF 10 ng/ml
Procedure: as §1, with “In cell culture, hTS cells were treated with bFGF and harvested at time as indicated and put into RIPA lysis solution (MILLIPORE®) supplemented with protease (Thermo Scientific) and phosphatase inhibitor (Cell Signaling Technology). After” for “After”

[10] = tested on: IL-6 and IL-8; experiment: bFGF induction of IL-6 and IL-8; assay type: cell-based, human; conditions: bFGF 10 ng/ml; time-dependent; n=3 cell lines
Procedure: To explore how prCTBs produce cytokines IL-6 and IL-8, hTSCs were incubated with bFGF for 1-day mimicking the transient stay in the fallopian tube. Mechanistically, bFGF activated its receptor FGFR1 at cell membrane to induce PI3K/phosphorylated (p)AKT signaling. In turn, pAKT interacted and phosphorylated downstream pCREB1 (cAMP responsive element binding protein 1) to activate pCREB1 signaling. These molecular processes were verified by using FGFR 1 inhibitor PD166866, and specific shRNAs for PI3K and pAKT (FIGS. 7G-7J). In the nucleus, CREB1 targeted the genes to produce IL-6 in a time-dependent manner (FIG. 7K, left panel) and IL-8 (FIG. 7K, right panel) in a dose-dependent manner, confirmed by ELISA assay (FIG. 7C). These molecular processes occurred co-incidentally with EMT in time and space.

[11] = tested on: β-hCG; experiment: IL-6 induced β-hCG, Western blot assay; assay type: cell-based, human; conditions: IL-6 10 ng/ml, via GnRHR and IL-6R
Procedure: as §1

[12] = tested on: PI3K/AKT signaling; experiment: Gβ/PI3K/AKT/GSK3α/β pathway by blotting analysis in hTS cells; assay type: cell-based, human
Procedure: as §1, with “In cell culture, hTS cells were treated with bFGF and harvested at time as indicated and put into RIPA lysis solution (MILLIPORE®) supplemented with protease (Thermo Scientific) and phosphatase inhibitor (Cell Signaling Technology). After” for “After”

[13] = tested on: hTS cells; experiment: Insulin secretion by RIA in secretomic analysis; assay type: cell-based, human; conditions: hTS cells (1×10^6 cells), glucose 20 mM, gliclazide 10 μM, nifedipine 10 μM, n=3
Procedure: The hTS cell culture media (10 ml) were harvested at 80-90% confluence followed by centrifugation (3,000 rpm, 30 min, 4° C.). The supernatants were further concentrated to 1 ml by using 3 kDa VIVASPIN® concentrator (Sigma). The concentrated supernatant was further detected for TGF-β1, HLA-G, and PAI-1 by immunoblotting assay. IL-10 level was measured by OPTEIA® ELISA assay kit following the supplier's instructions (BD Pharmingen, San Diego). The range of detectable IL-10 concentration was between 2 and 2,000 pg/ml. An aliquot of 100 μl sample was measured in triplicate. Total protein of supernatant was measured by using Pierce BCA protein assay kit (THERMO […]®). […] Media were collected at different time (5, 10, 20, 30, 60 and 120 min), freeze dried by lyophilizer (VIRTIS®; Warminster), and rehydrated with sterile water (400 μl) for radioimmunoassay (RIA). C-peptide and insulin levels were determined by C-PEP II-RIA-CT (DIAsource ImmunoAssays S. A.) and Coat-A-Count insulin (Siemens Healthcare Diagnostics), respectively, in 5 assays.

Question: Which results are given for CXCL2: chemokine (C-X-C motif) ligand 2?
Answer: movement (invasion and migration) of hTSCs [1]: significantly induced movement; movement (invasion and migration) of prCTBs [2]: significantly induced movement

Question: For IL-8: interleukin 8, which “generation of CD4(+) prCTBs” value [3] is on record?
Answer: generated CD4(+) prCTBs

Question: And the CD56 induction [4]?
Answer: induced CD56

Question: What about the “CREB1 mRNA” value ([5]; hTSCs) of the same compound?
Answer: upregulates

Question: What about the “CD56 mRNA” value ([5]; IL-8 30 ng/ml) of the same compound?
Answer: upregulates

Question: What about the “conventional receptor IL-8R mRNA” value ([5]; IL-8 30 ng/ml) of the same compound?
Answer: not

Question: What about the Foxp3 induction [6] of the same compound?
Answer: induced Foxp3

Question: What does the source list for O=[N+]([O-])c1ccc2c(c1)S(=O)(=O)C=C2 [Stattic]?
Answer: IL-8-induced CD4 in presence of inhibitor [3]: inhibited; IL-8-induced CD56 in presence of inhibitor [4]: inhibited; IL-8-induced Foxp3 in presence of inhibitor [6]: inhibited

Question: For “MCP-1: monocyte chemoattractant protein-1”, which “movement (invasion and migration) of hTSCs” value [1] is on record?
Answer: significantly induced movement

Question: And the “movement (invasion and migration) of prCTBs” value [2]?
Answer: significantly induced movement

Question: For COc1cc(OC)cc(-c2cc3cnc(N)nc3nc2NC(=O)NC(C)(C)C)c1 [PD166866, reference compound], which “bFGF activation of FGFR1 and PI3K signal in presence of inhibitor” value [7] is on record?
Answer: inhibited

Question: What does the source list for bFGF: basic fibroblast growth factor?
Answer: Fas level [8]: downregulation; Fas ligand (FasL) level [8]: upregulation; STAT3 level [8]: upregulation; c-JUN level [8]: upregulation; E-cadherin expression [9]: down-regulated; TGF-β1 expression [9]: up-regulated; vimentin expression [9]: up-regulated; IL-6 production [10]: induced; IL-8 production [10]: induced; activation of FGFR1 and downstream PI3K signal [7]: activated

Question: With IL-6: interleukin 6 as the compound, how does the “CREB1 mRNA” value ([5]; hTSCs) read?
Answer: upregulated

Question: And the “IL-6R mRNA” value ([5]; IL-6 10 ng/ml, hTSCs)?
Answer: upregulated

Question: What about the “β-hCG mRNA” value ([5]; IL-6 10 ng/ml, hTSCs) of the same compound?
Answer: upregulated

Question: What about the β-hCG induction [11] of the same compound?
Answer: induced β-hCG

Question: For NC1(c2ccc(-c3nc4ccn5c(=O)[nH]nc5c4cc3-c3ccccc3)cc2)CCC1 [MK2206], which “Gβ-induced phosphorylation of AKT (ser473) and GSK3α/β (ser21/9) in presence of inhibitor” value [12] is on record?
Answer: inhibited

Question: How did the “pMAFA expression in presence of inhibitor” value [12] turn out when Cn1cc(C2=C(c3ccc(Cl)cc3Cl)C(=O)NC2=O)c2ccccc21 [SB216763] was run?
Answer: inhibited

Question: With Cc1ccc(S(=O)(=O)NC(=O)NN2CC3CCCC3C2)cc1 (stereo not shown) [gliclazide] as the compound, how does the insulin secretion [13] read?
Answer: promoted insulin secretion

Question: How did the “IL-8-induced CD4 in presence of inhibitor” value [3] turn out when O=C(Nc1ccc([N+](=O)[O-])cc1O)Nc1ccccc1Br [SB225002] was run?
Answer: inhibited

Question: What about the “IL-8-induced CD56 in presence of inhibitor” value [4] of the same compound?
Answer: inhibited

Question: What about the “IL-8-induced Foxp3 in presence of inhibitor” value [6] of the same compound?
Answer: inhibited

Reference: patent US12077777B2, “Precursory regulatory cytotrophoblast cells and uses thereof” (Accelerated BioSciences Corp., priority 2019, dated 2024)
